Source: ChEMBL document CHEMBL3272278, “Electronic factors in the structure-activity relationship of some 1,4-benzodiazepin-2-ones” (1977)
Activity calls are given as the source filed them. The rule behind the calls is not given here.

What was measured:
Format in all cases: functional
Mus musculus [1] = species on record: Mus musculus; assay: Sedative activity in mouse
Mus musculus [2] = species on record: Mus musculus; assay: Muscle relaxant activity in mouse
Mus musculus [3] = species on record: Mus musculus; assay: Taming activity in mouse assessed as suppression of electrical current-induced aggressive behavior by foot-shock test
Mus musculus [4] = species on record: Mus musculus; assay: Anticonvulsion activity in mouse assessed as protection against pentylenetetrazole-induced convulsion
Felis catus = species on record: Felis catus; assay: Muscle relaxant activity in cat suspended by scruff of neck assessed as relaxation of body and hind legs

SMILES | log(1/ED50) (Mus musculus [1]) | log(1/ED50) (Mus musculus [2]) | log(1/MED) (Mus musculus [3]) | log(1/ED50) (Mus musculus [4]) | log(1/MED) (Felis catus) | Activity (Mus musculus [3]) | Activity (Mus musculus [1]) | Activity (Mus musculus [2]) | ED50 (Mus musculus [3]; Mus musculus) [mg/kg] | ED50 (Mus musculus [4]; Mus musculus) [mg/kg] | Activity (Mus musculus [4])
N#Cc1ccc2c(c1)C(c1ccccc1F)=NCC(=O)N2 | 0.5705 | 0.5705 | 1.7466 | 2.6327 | 3.7466 | – | – | – | – | – | –
CN1C(=O)CN=C(c2ccccc2F)c2cc(F)ccc21 | 0.1457 | 0.1457 | – | 0.3325 | 1.7574 | inactive | – | – | – | – | –
O=C1CN=C(c2ccccc2F)c2cc(Br)ccc2N1 | 1.5223 | 1.5223 | 2.1244 | 2.8233 | 3.8233 | – | – | – | – | – | –
N#Cc1ccc2c(c1)C(c1ccccc1)=NCC(=O)N2 | 0.5416 | 0.5416 | 0.8146 | 2.3027 | 2.7177 | – | – | – | – | – | –
COc1cccc(C2=NCC(=O)Nc3ccc(Cl)cc32)c1 | – | – | – | 2.2225 | – | inactive | inactive | inactive | – | – | –
O=C1CN=C(c2ccccc2Cl)c2cc(Cl)ccc2N1 [DELORAZEPAM] | 0.4842 | 0.4842 | 0.8821 | 2.8821 | 3.4842 | – | – | – | 2 | – | –
O=C1CN=C(c2ccccc2C(F)(F)F)c2cc(C(F)(F)F)ccc2N1 | 1.0934 | 1.0934 | 1.2695 | 1.9685 | 2.8716 | – | – | – | – | – | –
O=C1CN=C(c2ccccc2)c2cc(Br)ccc2N1 | 1.1002 | 1.1002 | 1.1971 | 2.1971 | 2.7992 | – | – | – | – | – | –
CN1C(=O)CN=C(c2ccccc2)c2cc(C#N)ccc21 | 1.1382 | 1.1382 | 1.7404 | 2.4393 | 2.7404 | – | – | – | – | – | –
CS(=O)(=O)c1ccc2c(c1)C(c1ccccc1)=NCC(=O)N2 | – | – | – | 0.2811 | – | inactive | inactive | inactive | – | – | –
O=C1CN=C(c2cccc([N+](=O)[O-])c2)c2cc([N+](=O)[O-])ccc2N1 | -0.0888 | -0.0888 | – | 0.8142 | – | inactive | – | – | – | – | –
CN1C(=O)CN=C(c2ccccc2C(F)(F)F)c2cc([N+](=O)[O-])ccc21 | 0.8609 | 0.8609 | 1.8609 | 2.7148 | 3.5599 | – | – | – | – | – | –
C[S+]([O-])c1ccc2c(c1)C(c1ccccc1)=NCC(=O)N2 (stereo not drawn) | 0.2313 | 0.2313 | – | 1.0764 | 1.8722 | inactive | – | – | – | – | –
O=C1CN=C(c2ccccc2)c2ccc(C(F)(F)F)cc2N1 | -0.1703 | -0.1703 | – | – | – | inactive | – | – | – | – | –
COc1ccc(C2=NCC(=O)Nc3ccc(Cl)cc32)cc1 | – | – | – | -0.4253 | – | inactive | inactive | inactive | – | – | –
COc1cc2c(cc1Br)C(c1ccccc1)=NCC(=O)N2 | 0.3616 | 0.3616 | 0.6346 | 1.6626 | – | – | – | – | – | – | –
CSc1ccc2c(c1)C(c1ccccc1)=NCC(=O)N2 | 0.2073 | 0.2073 | 1.1493 | 1.1493 | 2.1493 | – | – | – | – | – | –
O=C1CN=C(c2ccccc2F)c2cc([N+](=O)[O-])ccc2N1 | 1.8736 | 1.8736 | 2.1746 | 2.4934 | 3.7767 | – | – | – | – | 0.3 | –
CN1C(=O)CN=C(c2ccccc2Cl)c2cc([N+](=O)[O-])ccc21 [RO-054082] | 1.0407 | 1.0407 | 2.1198 | 3.4386 | 3.8188 | – | – | – | – | – | –
CN1C(=O)CN=C(c2ccc(Cl)cc2)c2cc(Cl)ccc21 [RO-54864] | 0.5037 | 0.5037 | – | – | – | inactive | – | – | – | – | inactive
CN1C(=O)CN=C(c2ccccc2)c2cc([N+](=O)[O-])ccc21 [NIMETAZEPAM] | 1.4698 | 1.4698 | 2.0719 | 2.6917 | 3.4698 | – | – | – | – | – | –
CCSc1ccc2c(c1)C(c1ccccc1)=NCC(=O)N2 | – | – | – | 0.2702 | – | inactive | – | – | – | – | –
CN1C(=O)CN=C(c2ccccc2)c2cc(Cl)ccc21 [DIAZEPAM] | 0.9769 | 0.9769 | 1.454 | 2.3079 | 3.153 | – | – | – | – | – | –
O=C1CN=C(c2ccccc2F)c2cc(Cl)ccc2N1 [N-DESALKYL-2-OXOQUAZEPAM] | 0.858 | 0.858 | 1.7611 | 3.4601 | 3.7611 | – | – | – | – | – | –

SMILES | log(1/ED50) (Mus musculus [1]) | log(1/ED50) (Mus musculus [2]) | log(1/MED) (Mus musculus [3]) | log(1/ED50) (Mus musculus [4]) | log(1/MED) (Felis catus) | Activity (Mus musculus [3]) | Activity (Mus musculus [1]) | Activity (Mus musculus [2]) | ED50 (Mus musculus [3]; Mus musculus) [mg/kg] | ED50 (Mus musculus [4]; Mus musculus) [mg/kg] | Activity (Mus musculus [4])
CSc1ccc2c(c1)C(c1ccccc1)=NCC(=O)N2C | 0.7724 | 0.7724 | 0.8693 | 0.5963 | 2.4714 | – | – | – | – | – | –
Cc1cc(C)c2c(c1)C(c1ccccc1)=NCC(=O)N2 | -0.2316 | -0.2316 | 0.4216 | – | – | – | – | – | – | – | inactive
O=C1CN=C(c2ccccc2C(F)(F)F)c2cc([N+](=O)[O-])ccc2N1 | 0.5428 | 0.5428 | 1.5428 | 2.6977 | 3.5424 | – | – | – | – | – | –
CN(C)c1ccc2c(c1)C(c1ccccc1)=NCC(=O)N2C | 0.2908 | 0.2908 | 0.8648 | 1.6887 | 2.4669 | – | – | – | – | – | –
O=C1CN=C(c2ccccc2)c2cc(C(F)(F)F)ccc2N1 [RO-052904] | 1.4829 | 1.4829 | 1.4829 | 2.4829 | 3.4829 | – | – | – | – | – | –
Cc1cc([N+](=O)[O-])cc2c1NC(=O)CN=C2c1ccccc1 | 1.1688 | 1.1688 | 1.1688 | 1.5613 | 2.7709 | – | – | – | – | – | –
CN(C)c1ccc2c(c1)C(c1ccccc1)=NCC(=O)N2 | – | – | – | 0.8224 | 1.4456 | inactive | inactive | inactive | – | – | –
Cc1ccc2c(c1)C(c1ccccc1)=NCC(=O)N2 | – | – | – | 0.1549 | – | inactive | inactive | inactive | – | – | –
O=C1CN=C(c2ccccc2Br)c2cc(Cl)ccc2N1 | 0.8443 | 0.8443 | 1.8443 | 2.7651 | 4.0661 | – | – | – | – | – | –
COc1ccccc1C1=NCC(=O)Nc2ccc(Cl)cc21 | 0.0007 | 0.0007 | 0.4778 | 1.6027 | 2.4778 | – | – | – | – | – | –
O=C1CN=C(c2ccccc2[N+](=O)[O-])c2cc([N+](=O)[O-])ccc2N1 | – | – | 0.9112 | 2.9691 | – | – | inactive | inactive | – | – | –
Cc1ccccc1C1=NCC(=O)Nc2ccc(Cl)cc21 | 0.2779 | 0.2779 | 0.454 | 1.5675 | 2.755 | – | – | – | – | – | –
O=C1CN=C(c2ccccc2)c2cccc([N+](=O)[O-])c2N1 | -0.2503 | -0.2503 | – | – | – | inactive | – | – | – | – | inactive
Cc1cccc(C2=NCC(=O)Nc3ccc(Cl)cc32)c1 | – | – | – | 0.8519 | – | inactive | inactive | inactive | – | – | –
Cc1cc2c(cc1C)C(c1ccccc1)=NCC(=O)N2 | – | – | – | 0.2978 | – | inactive | inactive | inactive | – | – | –
CN1C(=O)CN=C(c2ccccc2F)c2cc(Cl)ccc21 [FLUDIAZEPAM] | 1.4807 | 1.4807 | 1.7817 | 2.8766 | 3.7817 | – | – | – | – | – | –
O=C1CN=C(c2ccccc2Cl)c2cc([N+](=O)[O-])ccc2N1 [CLONAZEPAM] | – | – | 1.1979 | 3.2948 | 3.8 | – | inactive | inactive | – | – | –
O=C1CN=C(c2cccc(F)c2)c2cc(Cl)ccc2N1 | 0.159 | 0.159 | 0.858 | 1.8368 | 2.159 | – | – | – | – | – | –
O=C1CN=C(c2ccccc2)c2ccc(Cl)cc2N1 | – | – | – | -0.0917 | – | inactive | inactive | inactive | – | – | –
O=C1CN=C(c2ccccc2)c2cc(F)ccc2N1 [RO-053061] | 0.2287 | 0.2287 | 0.4048 | – | 1.8028 | – | – | – | – | – | inactive
O=C1CN=C(c2ccccc2)c2cc([N+](=O)[O-])ccc2N1 [NITRAZEPAM] | 1.2726 | 1.2726 | 1.7497 | 2.7497 | 3.4487 | – | – | – | – | – | –
CN1C(=O)CN=C(c2ccccc2Cl)c2cc(Cl)ccc21 | 0.9016 | 0.9016 | 1.5037 | 2.8804 | 3.5037 | – | – | – | – | – | –
O=C1CN=C(c2ccccc2)c2c(Cl)cccc2N1 | – | – | – | 0.1311 | – | inactive | inactive | inactive | – | – | –
